Test results taken from ChEMBL document CHEMBL1221167, “Small-molecule inhibition of siderophore biosynthesis in Mycobacterium tuberculosis and Yersinia pestis” (Nat Chem Biol, 2005).
Activity calls are given as the source filed them. The rule behind the calls is not given here.

Legend:
[1] = target: T1, AMP-binding enzyme family protein (Yersinia pestis) (UniProt Q56950); assay: Inhibition of His6-tagged Yersinia pestis YbtE-mediated [3H]salicyl-ypArCP-H6 formation up to 400 uM after 1.5 hrs by microplate counting
T1 sequence (whole entry): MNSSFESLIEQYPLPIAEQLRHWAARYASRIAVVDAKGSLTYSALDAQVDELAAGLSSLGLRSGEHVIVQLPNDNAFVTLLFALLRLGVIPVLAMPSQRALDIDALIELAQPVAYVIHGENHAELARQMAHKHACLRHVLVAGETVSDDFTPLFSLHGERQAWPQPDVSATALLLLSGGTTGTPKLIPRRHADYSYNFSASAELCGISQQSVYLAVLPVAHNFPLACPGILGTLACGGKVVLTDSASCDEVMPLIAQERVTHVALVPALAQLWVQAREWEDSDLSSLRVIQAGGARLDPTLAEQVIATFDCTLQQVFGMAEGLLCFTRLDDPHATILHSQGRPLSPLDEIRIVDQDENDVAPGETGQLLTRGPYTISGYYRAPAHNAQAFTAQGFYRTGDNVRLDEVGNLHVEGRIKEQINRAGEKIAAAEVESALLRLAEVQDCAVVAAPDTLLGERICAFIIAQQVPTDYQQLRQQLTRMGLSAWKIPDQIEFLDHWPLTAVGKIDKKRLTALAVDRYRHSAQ

[2] = test system: Mycobacterium tuberculosis; assay: Inhibition of siderophore production in Mycobacterium tuberculosis H37Rv at 200 uM after 12 hrs by radiometric assay; assay type: functional, organism-based
[3] = test system: Mycobacterium tuberculosis; assay: Antimicrobial activity against Mycobacterium tuberculosis H37Rv assessed as inhibition of bacterial growth in iron-deficient medium after 8 days; assay type: functional, organism-based; conditions: 192 h
[4] = test system: Mycobacterium tuberculosis; assay: Antimicrobial activity against Mycobacterium tuberculosis H37Rv assessed as inhibition of bacterial growth in iron-supplemented medium after 8 days; assay type: functional, organism-based; conditions: 192 h
Yersinia pestis [5] = assay: Antimicrobial activity against Yersinia pestis assessed as inhibition of bacterial growth in iron-supplemented medium after 22 hrs; assay type: functional, organism-based
Yersinia pestis [6] = assay: Antimicrobial activity against Yersinia pestis assessed as inhibition of bacterial growth in iron-deficient medium after 22 hrs; assay type: functional, organism-based
Pyochelin synthase PchD = target: T2, Pyochelin synthase PchD (Pseudomonas aeruginosa, UniProt Q9HWG3); assay: Inhibition of adenylation activity of Pseudomonas aeruginosa PchD after 15 mins by ATP-[32P]pyrophosphate exchange assay
T2 sequence (Q9HWG3 whole entry): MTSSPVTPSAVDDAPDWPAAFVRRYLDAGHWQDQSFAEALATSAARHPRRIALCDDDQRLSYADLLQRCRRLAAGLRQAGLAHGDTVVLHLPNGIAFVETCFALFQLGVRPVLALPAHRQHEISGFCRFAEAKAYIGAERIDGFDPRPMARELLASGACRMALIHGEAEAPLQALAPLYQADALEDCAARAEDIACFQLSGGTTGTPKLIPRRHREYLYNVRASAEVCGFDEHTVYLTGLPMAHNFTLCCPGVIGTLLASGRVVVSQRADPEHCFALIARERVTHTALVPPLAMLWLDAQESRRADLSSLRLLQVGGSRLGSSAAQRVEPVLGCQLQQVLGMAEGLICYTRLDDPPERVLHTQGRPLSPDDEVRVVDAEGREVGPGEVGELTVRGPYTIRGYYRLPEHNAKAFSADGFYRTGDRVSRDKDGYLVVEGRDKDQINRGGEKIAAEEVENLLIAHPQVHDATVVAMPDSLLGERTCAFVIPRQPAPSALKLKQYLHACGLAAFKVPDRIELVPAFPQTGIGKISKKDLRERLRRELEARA

SMILES	inhibition [1]	inhibition [2]	IC50 [3]	IC50 [4]	IC50 (Yersinia pestis [5])	IC50 (Yersinia pestis [6])	IC50 (Pyochelin synthase PchD)
Nc1ncnc2c1ncn2[C@@H]1O[C@H](COS(N)(=O)=O)[C@@H](O)[C@H]1O	inactive	–	–	–	–	–	–
Nc1ncnc2c1ncn2[C@@H]1O[C@H](COS(=O)(=O)NC(=O)c2ccccc2O)[C@@H](O)[C@H]1O	–	Active	2.2 µM	39.9 µM	> 400 µM	51.2 µM	0.0125 µM
